US8026359B2, “Fungicidal heterocyclic amines” (E.I. du Pont de Nemours and Company, priority 2007, dated 2011)
Marks after values point to notes of the source that are not given here.

What was measured:
Type in all cases: in vivo
[1] = tested on: Puccinia recondita f. sp. tritici; experiment: Test B: wheat leaf rust, preventive spray on wheat seedlings
In short: (§1)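 Each test compound, pre-dissolved in acetone, was suspended in aqueous acetone containing surfactant and sprayed onto the plants to the point of run-off at 200 or 40 ppm.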

Septoria nodorum = experiment: Test C: wheat glume blotch, preventive spray on wheat seedlings
In short: as §1

[2] = tested on: Erysiphe graminis f. sp. tritici; experiment: Test A: wheat powdery mildew, preventive spray on wheat seedlings
In short: as §1

Septoria tritici = experiment: Test D: wheat leaf blotch, preventive spray on wheat seedlings
In short: as §1

Fusarium graminearum = experiment: whole plant or invertebrate
Alternaria solani = experiment: Test H: tomato early blight, preventive spray on seedlings
From the text: (§2) General protocol for preparing test suspensions for Tests A-R: The test compounds were first dissolved in acetone in an amount equal to 3% of the final volume and then suspended at the desired concentration (in ppm) in acetone and purified water (50/50 mix) containing 250 ppm of the surfactant Trem® 014 (polyhydric alcohol esters). The resulting test suspensions were then used in tests A-R. In Tests A-M, compounds were sprayed as a 200 ppm test suspension (equivalent to a rate of 500 g/ha) or as a 40 ppm test suspension to the point of runoff on the test plants. In Tests N-R, compounds were sprayed as a 100 g/ha test suspension (equivalent to a rate of 100 ppm) on the test plants at an application volume of 1000 L/ha. The test suspension was sprayed to the point of run-off on wheat seedlings.

Botrytis cinerea = experiment: Test F: tomato Botrytis, preventive spray on tomato seedlings
In short: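 Compounds dissolved in acetone (3% of final volume), suspended in 50/50 acetone/water with 250 ppm Trem® 014. Sprayed preventively to run-off on tomato seedlings at 200 ppm (500 g/ha) or 40 ppm.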

Phytophthora infestans = details: 200 ppm; 100 = 100% disease control, 0 = no control relative to controls
[3] = tested on: Colletotrichum orbiculare; experiment: Test I: cucumber Colletotrichum anthracnose, preventive spray on cucumber seedlings; details: 200 ppm; 100 = 100% disease control, 0 = no control relative to controls
In short: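 Compound was dissolved in acetone (3% of final volume), then suspended in 50/50 acetone/water with 250 ppm Trem 014 surfactant. Cucumber seedlings were sprayed to run-off as a preventive treatment at 200 ppm (equivalent to 500 g/ha) or 40 ppm.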

Pythium aphanidermatum = experiment: Test M: bluegrass pythium blight, preventive spray on bluegrass seedlings; details: 200 ppm; 100 = 100% disease control, 0 = no control relative to controls
From the text: as §2, with “bluegrass” for “wheat”

Rhizoctonia oryzae = experiment: Test J: turf brown patch, preventive spray on creeping bent grass seedlings; details: 200 ppm; 100 = 100% disease control, 0 = no control relative to controls
From the text: as §2, with “creeping bent grass” for “wheat”

Plasmopara viticola = experiment: Test L: grape downy mildew, spray after inoculation of grape seedlings; details: 200 ppm; 100 = 100% disease control, 0 = no control relative to controls
From the text: as §2, with “L/ha. Grape seedlings were inoculated with a spore suspension of Plasmopara viticola (the causal agent of grape downy mildew) and incubated in a saturated atmosphere at 20° C. for 24 h. After a short drying period, the” for “L/ha. The”, “on the grape seedlings and then moved to a growth chamber at 20° C. for 6 days, after which time the test units were placed back into a saturated atmosphere at 20° C. for 24 h. Upon removal, disease ratings were made.” for “on wheat seedlings.”

[4] = 200 ppm, 100 = 100% disease control, 0 = no control relative to controls
[5] = Fusarium graminearum, in Triticum aestivum, 192 h, read-out: Test E disease control rating

SMILES | Test B disease control rating [1, 4] [%] | Test C disease control rating (Septoria nodorum; [4]) [%] | Test A disease control rating [2, 4] [%] | Test E disease control rating (Fusarium graminearum; [4]) [%] | Test F disease control rating (Botrytis cinerea; [4]) [%] | Test K disease control rating (Phytophthora infestans) [%] | Test I disease control rating [3] [%] | Test M disease control rating (Pythium aphanidermatum) [%] | Test J disease control rating (Rhizoctonia oryzae) [%] | Test L disease control rating (Plasmopara viticola) [%] | also measured
Fc1cc(F)cc(Nc2ncnc(-c3ccnc(NC4CCOCC4)n3)n2)c1 [Compound 34] | 98 | 100 | 0 | 68 | 0 |  |  |  |  |  | Test D disease control rating (Septoria tritici; [4]): 59%; Test H disease control rating (Alternaria solani; [4]): 94%
COC[C@H](C)Nc1nccc(-c2ncnc(Nc3cc(F)cc(C#N)c3)n2)n1 [Compound 36] |  |  |  |  |  |  |  |  |  |  | Test B disease control rating ([1]; 40 ppm (marked *)): 99* %; Test C disease control rating (Septoria nodorum; 40 ppm (marked *)): 100* %; Test A disease control rating ([2]; 40 ppm (marked *)): 0* %; Test D disease control rating (Septoria tritici; 40 ppm (marked *)): 29* %; Test E disease control rating (Fusarium graminearum; 40 ppm (marked *)): 91* %; Test H disease control rating (Alternaria solani; 40 ppm (marked *)): 99* %; Test F disease control rating (Botrytis cinerea; 40 ppm (marked *)): 99* %
COC[C@H](C)Nc1nccc(-c2ncnc(Nc3ccc(C#N)nc3)n2)n1 [Compound 37, 5-[[4-[2-[[(1S)-2-methoxy-1-methylethyl]amino]-4-pyrimidinyl]-1,3,5-triazinyl]amino]-2-pyridinecarbonitrile] |  |  |  |  |  |  |  |  |  |  | pest or weed control at 200 ppm ([1]; Puccinia recondita, 192 h, 200 ppm, 100 = 100% disease control, 0 = no control relative to controls, read-out: Test B disease control rating): 99%; pest or weed control at 200 ppm (Septoria nodorum; Parastagonospora nodorum, 216 h, 200 ppm, 100 = 100% disease control, 0 = no control relative to controls, read-out: Test C disease control rating): 98%; pest or weed control at 200 ppm ([2]; Blumeria graminis, 192 h, 200 ppm, 100 = 100% disease control, 0 = no control relative to controls, read-out: Test A disease control rating): 79%; pest or weed control at 200 ppm (Septoria tritici; Zymoseptoria tritici, 504 h, 200 ppm, 100 = 100% disease control, 0 = no control relative to controls, read-out: Test D disease control rating): 0%; pest or weed control at 200 ppm (Fusarium graminearum; [5]): 41%; pest or weed control at 200 ppm (Alternaria solani; Alternaria solani, 168 h, 200 ppm, 100 = 100% disease control, 0 = no control relative to controls, read-out: Test H disease control rating): 72%; pest or weed control at 200 ppm (Botrytis cinerea; Botrytis cinerea, 120 h, 200 ppm, 100 = 100% disease control, 0 = no control relative to controls, read-out: Test F disease control rating): 0%
COC[C@H](C)Nc1nccc(-c2ncnc(Nc3cc(F)cc([N+](=O)[O-])c3)n2)n1 [Compound 39, N-(3-fluoro-5-nitrophenyl)-4-[2-[[(1S)-2-methoxy-1-methylethyl]amino]-4-pyrimidinyl]-1,3,5-triazin-2-amine] |  |  |  |  |  |  |  |  |  |  | pest or weed control at 40 ppm ([1]; Puccinia recondita, 192 h, 40 ppm (marked *), read-out: Test B disease control rating): 98%; pest or weed control at 40 ppm (Septoria nodorum; Parastagonospora nodorum, 216 h, 40 ppm (marked *), read-out: Test C disease control rating): 99%; pest or weed control at 40 ppm ([2]; Blumeria graminis, 192 h, 40 ppm (marked *), read-out: Test A disease control rating): 0%; pest or weed control at 40 ppm (Septoria tritici; Zymoseptoria tritici, 504 h, 40 ppm (marked *), read-out: Test D disease control rating): 24%; pest or weed control at 40 ppm (Fusarium graminearum; [5]): 82%; pest or weed control at 40 ppm (Alternaria solani; Alternaria solani, 168 h, 40 ppm (marked *), read-out: Test H disease control rating): 99%; pest or weed control at 40 ppm (Botrytis cinerea; Botrytis cinerea, 120 h, 40 ppm (marked *), read-out: Test F disease control rating): 60%
COCC(C)Nc1nccc(-c2ccnc(Nc3ccccc3)c2)n1 (stereo not drawn) [Compound 43] | 99 | 99 | 29 | 100 | 92 | 0 | 90 | 0 | 9 | 0 | 
COCC(C)Nc1nccc(-c2ccnc(Nc3cccc([N+](=O)[O-])c3)c2)n1 (stereo not drawn) [Compound 44] | 89 | 98 | 0 | 99 | 0 | 0 | 40 | 0 | 0 | 0 | 
CC(C)(C)Nc1nccc(-c2ccnc(Nc3cccc(F)c3)c2)n1 [Compound 45] | 79 | 98 | 77 | 90 | 20 | 0 | 8 | 0 | 0 | 0 | 
COCC(C)Nc1nccc(-c2ccnc(Nc3cccc(Cl)c3F)c2)n1 (stereo not drawn) [Compound 46] | 91 | 97 | 0 | 94 | 7 | 0 | 0 | 0 | 0 | 0 | 
COCC(C)Nc1nccc(-c2ccnc(Nc3ccc(F)cc3F)c2)n1 (stereo not drawn) [Compound 47] | 85 | 0 | 0 | 92 | 0 | 0 | 40 | 0 | 0 | 0 | 
CC(CO)Nc1nccc(-c2ccnc(Nc3cccc(F)c3)c2)n1 (stereo not drawn) [Compound 48] | 99 | 87 | 0 | 0 | 15 | 0 | 26 | 0 | 0 | 0 | 
Fc1ccc(F)c(Nc2cc(-c3ccnc(NC4CCOCC4)n3)ccn2)c1F [Compound 73] | 96 | 99 | 43 | 0 | 57 | 0 | 85 | 0 |  |  | Test D disease control rating (Septoria tritici; [4]): 40%
Cc1cc(Cl)cc(Cl)c1Nc1cc(-c2ccnc(NC3CCOCC3)n2)ccn1 [Compound 100] | 98 | 98 | 0 | 96 | 0 |  | 0 |  |  |  | Test D disease control rating (Septoria tritici; [4]): 77%; Test H disease control rating (Alternaria solani; [4]): 99%
